≈ marks a conversion by molar mass, not a printed value.

The conditions of the data set: buffer; pH 7.4; 200.0 µM.
In the case of `CC1CCCN(c2ccc(F)cc2N)C1.Cl` (stereo not drawn), the kinetic solubility (commonly solubility judged after dilution from a stock solution rather than from solid) was found to be 3.8 µg/mL.
Next, `C=CCN1C(=O)CSC1=Nc1ccc(C(=O)O)cc1`: greater than 41.4 µg/mL; `COc1ccc(NC(=O)CCn2ccnc2)c(OC)c1`: 41.1 µg/mL (≈ 149 µM); `NC(=O)CSc1nccn1Cc1ccc2c(c1)OCO2`: greater than 43.7 µg/mL.
With `Cc1cc2nc(-c3ccc[nH]c3=O)[nH]c2cc1C`, the solubility (kinetic) came to 3.3 µg/mL (≈ 13.8 µM).
For the molecule `Cc1ccc(S(=O)(=O)NCC(=O)Nc2cccnc2)cc1C`, the kinetic solubility is greater than 47.9 µg/mL.
`CCOc1ccc(/C=N/OCC(=O)NCc2ccco2)cc1`: the solubility (kinetic) is greater than 45.3 µg/mL.
In the case of `COc1ccc(Nc2ncnc3ccc(Br)cc23)c(OC)c1`, the kinetic solubility turned out to be 7.3 µg/mL (≈ 20.3 µM).
Molecule `Clc1cccc(Cl)c1C1Nc2cccc3cccc(c23)N1` yielded a kinetic solubility of 3 µg/mL (≈ 9.52 µM).
Next, `CC(NC(=O)COC(=O)c1nc(Cl)ccc1Cl)c1ccccc1` (stereo not drawn): greater than 53 µg/mL.
Regarding `O=C(O)c1cc(Cl)c(Cl)cc1C(=O)NCc1ccco1`, the solubility (kinetic) was greater than 47.1 µg/mL.
The result for `COC(=O)c1ccc(C[n+]2ccccc2)cc1.[Br-]` reads greater than 46.2 µg/mL.
`Cc1nnc(SCC(=O)Nc2ccccc2F)n(N)c1=O`: the solubility (kinetic) is greater than 46.4 µg/mL.
For `CC(=O)Nc1cc2nc(C)n(Cc3ccc([N+](=O)[O-])cc3)c2nc1C`, the solubility (kinetic) is greater than 50.9 µg/mL.
`COC(=O)CNc1nc(Cl)nc(NC2CCCCC2)n1`: the solubility (kinetic) amounted to 27.7 µg/mL (≈ 92.4 µM).
Regarding `COc1ccc(CNc2nc3ccccc3s2)cc1OC`, the kinetic solubility was found to be 1.4 µg/mL (≈ 4.66 µM). Against the preceding molecule, the solubility kinetic is about 20-fold lower.
The molecule `Cc1nc(C)c(-c2csc(Nc3ccc(S(N)(=O)=O)cc3)n2)s1` yielded a kinetic solubility of 0.3 µg/mL (≈ 0.819 µM).
In the case of `S=C(Nc1ccccn1)Nc1ccccc1Cl`, the solubility (kinetic) was 2.1 µg/mL (≈ 7.96 µM).
The result for `O=C(NCCN1CCCCC1)Nc1ccccc1Cl` reads greater than 42.3 µg/mL.
Molecule `CCOc1ccc(CNC2CCCCCCC2)cc1OC.Cl` registered a solubility (kinetic) of 37.1 µg/mL.
`O=C(CSCc1ccc(F)cc1)NCc1cccs1` gave a solubility (kinetic) of 40.2 µg/mL (≈ 136 µM). The solubility kinetic values of the last two molecules are within 1.5-fold of each other.
In the case of `CC(=O)c1ccn(S(=O)(=O)c2ccc(Cl)cc2)c1`, the kinetic solubility amounted to 33.9 µg/mL (≈ 119 µM).
For the molecule `CCC(=O)c1ccc(OCC(=O)OCC(=O)NCC2CCCO2)cc1` (stereo not drawn), the kinetic solubility turned out to be 49.5 µg/mL (≈ 142 µM).
The molecule `O=C(NC1CCSc2ccccc21)c1ccc(C(F)(F)F)cc1` (stereo not drawn) came in with a kinetic solubility of less than 0.7 µg/mL.
As for `CCn1c(SCc2ccccc2)nc2c1c(=O)[nH]c(=O)n2C`, the solubility (kinetic) was 39.3 µg/mL (≈ 124 µM).
On to `C/C(=C\c1cccs1)C(=O)c1c(C)cc(C)[nH]c1=O`, for which the kinetic solubility was greater than 41 µg/mL.
Take `Clc1ccc(-c2nc3cc(CN4CCCCC4)ccc3o2)cc1`: the solubility (kinetic) came to 23.1 µg/mL (≈ 70.7 µM).
`Cc1cc(C(=O)OCC(=O)NC2CC2)ccc1[N+](=O)[O-]` yielded a solubility (kinetic) of 15.5 µg/mL (≈ 55.7 µM).
The molecule `O=C(Nc1ccccn1)c1ccc2c(=O)n3c(nc2c1)CCCCC3` returned a kinetic solubility greater than 50.2 µg/mL.
`Cc1cc(C(=O)Nc2nccs2)c2cc(F)ccc2n1` registered a solubility (kinetic) of 3.1 µg/mL (≈ 10.8 µM).
The molecule `NC(=O)C1CCN(C(=O)CSc2nc(O)cc(=O)[nH]2)CC1` yielded a kinetic solubility of 31.1 µg/mL (≈ 99.6 µM).
For the molecule `COc1cccc2cc(C(=O)NCCN3CCOCC3)c(=O)oc12`, the kinetic solubility is greater than 49.9 µg/mL.
Next, `O=C(CCCCl)Nc1nc(-c2ccc3c(c2)OCCO3)cs1`: 1.1 µg/mL (≈ 3.25 µM); `O=S(=O)(c1ccccc1)N1CCc2ccccc2C1`: less than 0.6 µg/mL.
In the case of `CN(Cc1ccccc1)S(=O)(=O)c1cc2c3c(c1)CCN3C(=O)CC2`, the solubility (kinetic) was found to be 3.6 µg/mL (≈ 10.1 µM).
In turn, `CC(=O)Nc1ccc(NC(=O)COc2ncnc3ccccc23)cc1` came in with a solubility (kinetic) greater than 50.5 µg/mL.
`COc1ccc2c(c1)C=C(CN1CCN(C(C)C)C(CCO)C1)CO2` (stereo not drawn) gave a kinetic solubility of 34.5 µg/mL (≈ 99.6 µM).
The molecule `Cc1csc(SCC(=O)Nc2ccc(C)c(F)c2)n1` gave a solubility (kinetic) greater than 44.5 µg/mL.
For the molecule `Cc1cc(Br)ccc1NC(=O)c1ccco1`, the kinetic solubility was greater than 42 µg/mL.
`CCOC(=O)c1cc(C#N)c(N2CCCNCC2)nc1C(F)(F)F` displayed a kinetic solubility greater than 51.3 µg/mL.
Turning to `O=C(Nc1c(-c2ccccc2)nc2ccccn12)c1ccccc1`, the solubility (kinetic) came out at 38.7 µg/mL (≈ 124 µM).
With `O=S(=O)(NC1CC2CCC1C2)c1ccc(Br)cc1` (stereo not drawn), the solubility (kinetic) amounted to 13.9 µg/mL (≈ 42.1 µM).
In turn, `COC(=O)Cc1ccc(NC(=S)Nc2cccc(C)n2)cc1` came in with a kinetic solubility of 1.6 µg/mL (≈ 5.07 µM).
Regarding `Cc1ccccc1NC(=O)COC(=O)CCSc1ccccc1`, the solubility (kinetic) turned out to be 13.1 µg/mL (≈ 39.8 µM).
`O=C(CN1c2cccc3cccc(c23)S1(=O)=O)NC1CCCCC1` yielded a solubility (kinetic) of 5 µg/mL (≈ 14.5 µM).
The molecule `Cc1cccc(CC2CC(=O)N(c3ccc([N+](=O)[O-])cc3)C2=O)c1` (stereo not drawn) came in with a kinetic solubility of 21 µg/mL (≈ 64.7 µM). This solubility kinetic lies about 4.2-fold higher than the previous one.
`COc1cc(OC)c(C(=O)O/N=C(\N)c2cccc(C)c2)cc1OC` yielded a kinetic solubility greater than 51.7 µg/mL.
Turning to `O=C(COC(=O)CCC(=O)N1CCOCC1)Nc1ccc(Br)cc1Br`, the solubility (kinetic) is greater than 71.7 µg/mL.
`CC1(C(=O)O)CCC(C(N)=O)C1(C)C` (stereo not drawn) yielded a solubility (kinetic) greater than 29.9 µg/mL.
Next, `O=C(CSC(=S)N1CCCC1)c1ccccc1`: less than 0.6 µg/mL.
The molecule `CC1(C)C2CCC(C2)C1(C)N=C1OC(CCl)CS1` (stereo not drawn) showed a solubility (kinetic) of 5.9 µg/mL (≈ 20.5 µM).
Next, `O=C(Nc1c(Cl)ccc2nsnc12)c1ccc([N+](=O)[O-])o1`: greater than 48.7 µg/mL.
The molecule `CCOC(=O)C1CCCN(C(=S)Nc2ccc(S(=O)(=O)N3CCOCC3)cc2)C1` (stereo not drawn) registered a solubility (kinetic) greater than 66.2 µg/mL.

The values are drawn from PubChem BioAssay AID1996.
